Test results taken from the kinase profiling compilation of Christmann-Franck et al. (2016).

Assays:
Assay in all cases: KINOMEscan competition binding
Settings in all cases: compound 10.0 µM
[1] = target: AAK1 (human) (UniProt Q2M2I8)
[2] = target: BRSK1 (human) (UniProt Q8TDC3)
[3] = target: CAMK2B (human) (UniProt Q13554)
[4] = target: CDC42BPG (human) (UniProt Q6DT37)
[5] = target: CDK7 (human) (UniProt P50613)
[6] = target: CSF1R (human) (UniProt P07333)
[7] = target: CSNK1G3 (human) (UniProt Q9Y6M4)
[8] = target: DAPK2 (human) (UniProt Q9UIK4)
[9] = target: DCLK2 (human) (UniProt Q8N568)
[10] = target: GAK (human) (UniProt O14976)
[11] = target: GSK3A (human) (UniProt P49840)
[12] = target: HIPK1 (human) (UniProt Q86Z02)
[13] = target: JAK2 JH1 catalytic (human) (UniProt O60674)
[14] = system: KIT (human), P10721 [A829P]
[15] = target: MAP3K15 (human) (UniProt Q6ZN16)
[16] = target: MAP3K6 (human) (UniProt O95382)
[17] = target: MAP3K7 (human) (UniProt O43318)
[18] = target: MAP4K2 (human) (UniProt Q12851)
[19] = target: MAPK13 (human) (UniProt O15264)
[20] = target: MAPK4 (human) (UniProt P31152)
[21] = target: MAPK7 (human) (UniProt Q13164)
[22] = target: MST1R (human) (UniProt Q04912)
[23] = target: MTOR (human) (UniProt P42345)
[24] = target: NEK1 (human) (UniProt Q96PY6)
[25] = target: NEK5 (human) (UniProt Q6P3R8)
[26] = target: PAK4 (human) (UniProt O96013)
[27] = target: PDGFRB (human) (UniProt P09619)
[28] = target: PIM2 (human) (UniProt Q9P1W9)
[29] = target: PIP4K2B (human) (UniProt P78356)
[30] = target: PRKACA (human) (UniProt P17612)
[31] = target: PRKCQ (human) (UniProt Q04759)
[32] = target: RPS6KB1 (human) (UniProt P23443)
[33] = target: SIK3 (human) (UniProt Q9Y2K2)
[34] = target: STK11 (human) (UniProt Q15831)
[35] = target: STK32A (human) (UniProt Q8WU08)
[36] = target: TAOK1 (human) (UniProt Q7L7X3)
[37] = target: TGFBR2 (human) (UniProt P37173)
[38] = target: TTK (human) (UniProt P33981)
[39] = target: ULK1 (human) (UniProt O75385)
[40] = target: WEE1 (human) (UniProt P30291)

Sequence of PRKCQ (human) (Q04759 whole entry, looked up): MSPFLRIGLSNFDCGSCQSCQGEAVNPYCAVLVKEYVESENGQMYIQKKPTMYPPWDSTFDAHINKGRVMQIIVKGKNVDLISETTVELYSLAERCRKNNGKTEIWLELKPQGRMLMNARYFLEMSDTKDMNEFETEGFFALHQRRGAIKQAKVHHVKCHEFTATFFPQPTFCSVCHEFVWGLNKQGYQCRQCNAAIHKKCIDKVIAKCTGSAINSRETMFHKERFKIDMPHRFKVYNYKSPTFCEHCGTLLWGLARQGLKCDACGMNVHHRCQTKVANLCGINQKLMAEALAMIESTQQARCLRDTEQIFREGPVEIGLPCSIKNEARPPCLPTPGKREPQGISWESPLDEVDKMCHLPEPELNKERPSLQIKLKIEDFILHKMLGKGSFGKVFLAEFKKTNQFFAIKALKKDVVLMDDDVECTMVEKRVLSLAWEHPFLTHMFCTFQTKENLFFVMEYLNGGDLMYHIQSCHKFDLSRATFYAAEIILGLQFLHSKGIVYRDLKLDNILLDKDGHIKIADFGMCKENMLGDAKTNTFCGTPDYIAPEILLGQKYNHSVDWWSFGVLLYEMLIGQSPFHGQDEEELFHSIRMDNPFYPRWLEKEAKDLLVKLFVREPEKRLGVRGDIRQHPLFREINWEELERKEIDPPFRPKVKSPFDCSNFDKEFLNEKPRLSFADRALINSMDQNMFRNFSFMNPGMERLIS
Sequence of DAPK2 (human) (Q9UIK4 whole entry, looked up): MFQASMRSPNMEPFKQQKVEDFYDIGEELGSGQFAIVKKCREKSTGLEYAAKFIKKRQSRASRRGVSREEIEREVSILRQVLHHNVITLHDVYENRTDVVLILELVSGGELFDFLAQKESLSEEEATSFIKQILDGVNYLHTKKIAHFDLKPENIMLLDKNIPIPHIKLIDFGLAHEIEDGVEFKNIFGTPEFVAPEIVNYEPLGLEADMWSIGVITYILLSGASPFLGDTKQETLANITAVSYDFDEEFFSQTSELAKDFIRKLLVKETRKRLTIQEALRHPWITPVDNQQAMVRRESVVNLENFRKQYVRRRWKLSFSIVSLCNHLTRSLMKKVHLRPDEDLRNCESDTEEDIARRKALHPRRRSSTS
Sequence of STK11 (human) (Q15831 whole entry, looked up): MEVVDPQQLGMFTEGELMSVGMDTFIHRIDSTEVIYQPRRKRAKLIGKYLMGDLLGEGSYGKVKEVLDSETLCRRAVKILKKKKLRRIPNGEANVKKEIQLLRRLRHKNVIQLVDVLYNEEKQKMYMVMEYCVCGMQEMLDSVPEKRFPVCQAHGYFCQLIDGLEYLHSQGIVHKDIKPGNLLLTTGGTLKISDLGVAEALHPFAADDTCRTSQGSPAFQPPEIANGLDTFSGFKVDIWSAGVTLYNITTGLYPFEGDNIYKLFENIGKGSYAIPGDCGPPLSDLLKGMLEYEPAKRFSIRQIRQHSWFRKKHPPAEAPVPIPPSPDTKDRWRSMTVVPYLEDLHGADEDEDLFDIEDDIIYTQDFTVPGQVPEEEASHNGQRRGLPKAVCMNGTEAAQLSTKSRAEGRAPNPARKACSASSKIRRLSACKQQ
Sequence of CAMK2B (human) (Q13554 whole entry, looked up): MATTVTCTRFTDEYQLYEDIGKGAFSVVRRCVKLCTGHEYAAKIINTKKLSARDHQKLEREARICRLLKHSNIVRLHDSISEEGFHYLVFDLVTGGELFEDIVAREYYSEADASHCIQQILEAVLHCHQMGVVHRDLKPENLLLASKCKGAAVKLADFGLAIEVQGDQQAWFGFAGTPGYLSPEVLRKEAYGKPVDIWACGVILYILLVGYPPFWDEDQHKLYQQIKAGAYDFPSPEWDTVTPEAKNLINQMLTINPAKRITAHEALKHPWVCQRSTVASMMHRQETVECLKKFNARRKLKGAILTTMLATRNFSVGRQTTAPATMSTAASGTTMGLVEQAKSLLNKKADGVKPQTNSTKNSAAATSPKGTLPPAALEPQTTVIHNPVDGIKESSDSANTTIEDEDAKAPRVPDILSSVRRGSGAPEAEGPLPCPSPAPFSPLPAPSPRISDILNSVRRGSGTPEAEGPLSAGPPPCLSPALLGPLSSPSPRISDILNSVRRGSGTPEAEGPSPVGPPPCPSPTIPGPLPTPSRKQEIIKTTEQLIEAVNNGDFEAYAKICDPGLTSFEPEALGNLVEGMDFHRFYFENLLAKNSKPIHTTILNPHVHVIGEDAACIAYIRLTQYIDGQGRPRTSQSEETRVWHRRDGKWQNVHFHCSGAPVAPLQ
Sequence of GSK3A (human) (P49840 whole entry, looked up): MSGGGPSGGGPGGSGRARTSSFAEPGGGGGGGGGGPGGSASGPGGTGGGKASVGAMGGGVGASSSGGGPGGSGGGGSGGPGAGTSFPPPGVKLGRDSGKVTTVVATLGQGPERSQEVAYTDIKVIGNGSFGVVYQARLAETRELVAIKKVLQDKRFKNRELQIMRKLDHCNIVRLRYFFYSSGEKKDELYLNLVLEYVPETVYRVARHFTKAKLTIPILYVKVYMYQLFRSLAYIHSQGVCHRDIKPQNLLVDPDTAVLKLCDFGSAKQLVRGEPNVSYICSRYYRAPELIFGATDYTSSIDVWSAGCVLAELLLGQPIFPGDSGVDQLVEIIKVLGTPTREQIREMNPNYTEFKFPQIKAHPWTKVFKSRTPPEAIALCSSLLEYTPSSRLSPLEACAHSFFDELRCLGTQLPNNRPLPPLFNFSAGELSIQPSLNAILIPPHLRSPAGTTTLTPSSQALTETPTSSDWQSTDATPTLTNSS
Sequence of CSF1R (human) (P07333 whole entry, looked up): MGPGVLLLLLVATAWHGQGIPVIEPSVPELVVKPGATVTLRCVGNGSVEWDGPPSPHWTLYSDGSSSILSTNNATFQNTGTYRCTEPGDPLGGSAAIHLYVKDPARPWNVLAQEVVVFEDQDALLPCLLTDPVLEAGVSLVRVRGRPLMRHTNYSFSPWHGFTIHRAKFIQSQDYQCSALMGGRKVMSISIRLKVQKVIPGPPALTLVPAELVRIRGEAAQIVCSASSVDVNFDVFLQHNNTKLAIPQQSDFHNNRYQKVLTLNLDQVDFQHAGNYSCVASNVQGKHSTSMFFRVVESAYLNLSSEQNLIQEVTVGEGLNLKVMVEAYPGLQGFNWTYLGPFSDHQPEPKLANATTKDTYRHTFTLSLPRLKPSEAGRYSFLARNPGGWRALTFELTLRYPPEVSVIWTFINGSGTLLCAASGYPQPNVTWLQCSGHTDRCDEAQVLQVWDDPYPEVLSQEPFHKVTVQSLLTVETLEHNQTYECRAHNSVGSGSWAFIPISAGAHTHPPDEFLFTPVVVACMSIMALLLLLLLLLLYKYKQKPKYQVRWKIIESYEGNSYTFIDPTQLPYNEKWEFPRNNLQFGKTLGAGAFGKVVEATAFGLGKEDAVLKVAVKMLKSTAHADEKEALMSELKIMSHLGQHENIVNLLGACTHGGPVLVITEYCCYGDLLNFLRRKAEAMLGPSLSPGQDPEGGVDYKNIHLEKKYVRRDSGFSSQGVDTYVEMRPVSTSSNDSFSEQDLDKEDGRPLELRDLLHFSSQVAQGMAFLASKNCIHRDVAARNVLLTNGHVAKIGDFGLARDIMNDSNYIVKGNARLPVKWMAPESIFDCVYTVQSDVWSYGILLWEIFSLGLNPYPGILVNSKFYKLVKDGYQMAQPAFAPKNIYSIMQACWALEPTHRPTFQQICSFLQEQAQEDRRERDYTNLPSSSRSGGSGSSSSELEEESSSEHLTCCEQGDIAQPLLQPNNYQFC
Sequence of MAP3K7 (human) (O43318 whole entry, looked up): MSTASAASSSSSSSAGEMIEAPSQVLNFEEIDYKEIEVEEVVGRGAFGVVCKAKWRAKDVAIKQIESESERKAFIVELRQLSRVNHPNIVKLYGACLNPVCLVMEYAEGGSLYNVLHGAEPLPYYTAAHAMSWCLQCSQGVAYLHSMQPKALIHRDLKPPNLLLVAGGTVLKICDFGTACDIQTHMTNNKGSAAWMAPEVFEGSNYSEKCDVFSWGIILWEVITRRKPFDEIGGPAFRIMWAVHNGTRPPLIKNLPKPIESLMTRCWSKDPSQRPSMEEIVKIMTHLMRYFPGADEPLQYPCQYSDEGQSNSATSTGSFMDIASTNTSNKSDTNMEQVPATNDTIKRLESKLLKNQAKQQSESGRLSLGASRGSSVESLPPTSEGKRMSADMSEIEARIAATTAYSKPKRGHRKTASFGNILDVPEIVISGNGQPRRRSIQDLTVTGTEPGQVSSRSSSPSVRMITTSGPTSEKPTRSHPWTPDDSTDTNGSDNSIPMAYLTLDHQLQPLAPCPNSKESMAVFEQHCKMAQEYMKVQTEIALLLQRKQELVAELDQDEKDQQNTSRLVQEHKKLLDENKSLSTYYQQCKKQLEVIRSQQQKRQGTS
Sequence of DCLK2 (human) (Q8N568 whole entry, looked up): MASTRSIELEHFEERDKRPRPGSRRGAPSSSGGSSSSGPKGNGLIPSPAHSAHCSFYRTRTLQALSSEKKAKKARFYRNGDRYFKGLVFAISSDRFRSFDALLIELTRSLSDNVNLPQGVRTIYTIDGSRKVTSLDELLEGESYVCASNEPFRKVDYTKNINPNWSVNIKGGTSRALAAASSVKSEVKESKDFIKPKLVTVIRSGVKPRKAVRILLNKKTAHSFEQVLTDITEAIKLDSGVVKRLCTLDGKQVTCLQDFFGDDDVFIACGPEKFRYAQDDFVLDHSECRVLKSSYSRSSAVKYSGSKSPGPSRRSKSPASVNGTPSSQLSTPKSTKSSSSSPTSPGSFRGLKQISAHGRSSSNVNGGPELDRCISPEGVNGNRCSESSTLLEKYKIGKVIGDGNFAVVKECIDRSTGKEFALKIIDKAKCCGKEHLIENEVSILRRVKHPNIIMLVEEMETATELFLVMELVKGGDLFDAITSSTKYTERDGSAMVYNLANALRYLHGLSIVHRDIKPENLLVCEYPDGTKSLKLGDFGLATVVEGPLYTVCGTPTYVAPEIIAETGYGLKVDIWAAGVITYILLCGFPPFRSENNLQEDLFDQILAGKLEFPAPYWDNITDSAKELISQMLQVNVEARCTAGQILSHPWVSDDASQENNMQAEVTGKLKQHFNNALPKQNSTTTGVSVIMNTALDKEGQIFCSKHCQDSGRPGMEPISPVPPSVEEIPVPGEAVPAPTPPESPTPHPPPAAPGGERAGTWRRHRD

## N#C/C(=C1/Nc2ccccc2S1)c1ccnc(NCCc2cccnc2)n1
[1]
  kinase still bound, per cent of control: 10%
[2]
  kinase still bound, per cent of control: 85%
[3]
  kinase still bound, per cent of control: 49%
[4]
  kinase still bound, per cent of control: 89%
[5]
  kinase still bound, per cent of control: 16%
[6]
  kinase still bound, per cent of control: 98%
[7]
  kinase still bound, per cent of control: 100%
[8]
  kinase still bound, per cent of control: 34%
[9]
  kinase still bound, per cent of control: 100%
[10]
  kinase still bound, per cent of control: 4.6%
[11]
  kinase still bound, per cent of control: 0.6%
[12]
  kinase still bound, per cent of control: 1.2%
[13]
  kinase still bound, per cent of control: 45%
[14]
  kinase still bound, per cent of control: 73%
[15]
  kinase still bound, per cent of control: 100%
[16]
  kinase still bound, per cent of control: 100%
[17]
  kinase still bound, per cent of control: 22%
[18]
  kinase still bound, per cent of control: 36%
[19]
  kinase still bound, per cent of control: 51%
[20]
  kinase still bound, per cent of control: 96%
[21]
  kinase still bound, per cent of control: 100%
[22]
  kinase still bound, per cent of control: 100%
[23]
  kinase still bound, per cent of control: 34%
[24]
  kinase still bound, per cent of control: 57%
[25]
  kinase still bound, per cent of control: 100%
[26]
  kinase still bound, per cent of control: 78%
[27]
  kinase still bound, per cent of control: 64%
[28]
  kinase still bound, per cent of control: 20%
[29]
  kinase still bound, per cent of control: 26%
[30]
  kinase still bound, per cent of control: 100%
[31]
  kinase still bound, per cent of control: 100%
[32]
  kinase still bound, per cent of control: 41%
[33]
  kinase still bound, per cent of control: 100%
[34]
  kinase still bound, per cent of control: 77%
[35]
  kinase still bound, per cent of control: 100%
[36]
  kinase still bound, per cent of control: 38%
[37]
  kinase still bound, per cent of control: 100%
[38]
  kinase still bound, per cent of control: 62%
[39]
  kinase still bound, per cent of control: 36%
[40]
  kinase still bound, per cent of control: 100%
